Measurements: PMC5743070 (The Journal of Biological Chemistry, 2017)
Where two headings read alike, the source gives them in different places.

What was measured:
TTD (UHRF1_121–286) [1] = biological target: T1, TTD (UHRF1_121–286) (Homo sapiens, UniProt Q96T88); experiment: (1H-15N) HSQC NMR titration of TTD; assay type: binding; conditions: for Kd: HSQC titration, ~250 μM TTD, 5% DMSO, pH 7.5, 25 °C
T1 construct: UHRF1_121–286 corresponding to the TTD; made in house
T1 sequence (Q96T88 121-286): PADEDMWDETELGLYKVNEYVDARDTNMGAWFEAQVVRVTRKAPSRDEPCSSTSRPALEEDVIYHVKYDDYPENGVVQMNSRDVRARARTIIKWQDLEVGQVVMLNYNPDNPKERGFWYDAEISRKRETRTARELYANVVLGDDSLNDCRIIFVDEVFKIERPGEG
From the text: We designed a fragment library containing 2,040 compounds that was initially screened against isolated TTD (UHRF1_121–286) using a fluorescence polarization (FP) assay that tracked the displacement of a N-terminally tagged H3K9me3 peptide (H3K9me3(1–25)). From this screen, eight putative TTD-binding hits were identified. […] Because of limited commercial availability of the tricyclic amine, we focused only on BPC. The binding of this compound occurs close to (or within) the Arg^296-binding pocket; we observe significant perturbation of Trp^238 and Phe^278 resonances that form part of the pocket, and in Gly^236, which is directly adjacent to it (Fig. 4A and supplemental Fig. S5). We also see chemical shift changes in non-surface exposed residues that are close to or are in contact with the groove.
(§1) NMR samples were buffered in 20 mM sodium phosphate (pH 7.5), 150 mM NaCl, 5 mM DTT, 5 mM β-mercaptoethanol, 2 mM TCEP, and 10 μM ZnSO4. The protein concentration was between 200 and 300 μM for all samples. The data were collected at 25 °C on Bruker spectrometers equipped with cryoprobes and operating at 500, 600, or 800 MHz. The assignment of backbone TTD–PHD resonances was accomplished using the ABACUS method ([29]) for which standard backbone and ^15N-edited NOESY spectra were collected using ^15N/^13C/^2H- or ^15N/^13C-labeled protein. All 3D experiments were acquired using non-uniform sampling and processed using the software MDDGUI ([30]) or qMDD ([31]). ^15N-Labeled TTD–PHD was used to acquire ^15N T1 and T2 relaxation and ^1H-^15N heteronuclear NOE measurements ([32]) collected using standard Bruker pulse schemes in an interleaved manner. For T1 measurements, the variable delay was set to 0.1, 0.4, 0.8, 1.5, 2.0, 2.5, 3.5, and 5 s. For T2 measurements, the variable delay was set to 16, 32, 48, 64, 80, 96, 128, and 144 ms. The D1 was 3 s for all experiments. Reported values were the average from two measurements. All spectra were processed using NMRPipe ([33]) and analyzed with SPARKY ([34]).
(§2) Figure S5 (related to Fig. 4)
(§3) Binding of BPC in the groove of TTD. […]
(§4) labeled (at the N-terminus) H3K9me3(1-25) peptide, (B) ITC, and (C) DSF. (D) KD estimates of BPC bind-ing based on I211 and Y239 amide peak movement (where Δ(ppm) = ((ΔδHN)2 + (ΔδN/6.5)2 )1⁄2) in (1H-15N) HSQC spectra when the TTD is titrated with BPC. […]
(§5) as a function of TTD sequence resulting from BPC (blue) or PBR peptide (red) binding. (F) HSQC overlays […]
(§6) ment:protein), and PBR peptide ratios (bottom spectrum - from 1:1 to 5:1 peptide:protein). The protein con-centration was ~250 µM for all NMR experiments, and the DMSO concentration was 5% for NMR titrations […]
(1 picture or pasted object on this page, not shown here)

solubility (statement) = assay type: physicochemical
TTD (UHRF1_121–286) [2] = biological target: T1, TTD (UHRF1_121–286); experiment: HSQC competition of BPC and linker peptide on TTD; assay type: binding; conditions: BPC 2.4 mM, linker peptide 3.0 mM, 5% DMSO; I211, I212 and E281 resonances in HSQC
Experimental: as §1, with “([34]). […]” for “([34]).”
trated by the perturbation of I211, I212 and E281 resonances in HSQC spectra of the TTD in a competition assay. […]

TTD (UHRF1_121–286) [3] = biological target: T1, TTD (UHRF1_121–286); experiment: DSF thermal shift of TTD; assay type: binding; conditions: 0.1 mg/ml TTD, absence and presence of 3 mM BPC, 0.1 M HEPES pH 7.5, 0.15 M NaCl, 5× Sypro Orange, 4 °C/min
Experimental: DSF measurements were performed with a Light Cycler 480 II instrument from Roche Applied Science. TTD (UHRF1_121–286) was buffered at 0.1 mg/ml in 0.1 M HEPES (pH 7.5), 0.15 M NaCl, and 5× Sypro Orange. Sypro Orange was purchased from Invitrogen as a 5,000× stock solution, and it was diluted 1:1,000 to yield a 5× working concentration. Experiments were run in the absence and presence of 3 mM BPC. DSF was carried out by increasing the temperature from 20 to 95 °C at a heating rate of 4 °C/min, and data points were collected at 1 °C intervals. The temperature scan curves were fitted to a Boltzmann sigmoid function, and the Tm values were obtained from the midpoint of the transition as described previously ([47]).
as §2, §3, §4, §5, §6

- binding site on TTD by amide peak movement (TTD (UHRF1_121–286) [1]; (1H-15N) HSQC spectra of TTD): occurs in the groove
- Kd (TTD (UHRF1_121–286) [1]; residue I211, read-out: KD estimate from I211 amide peak movement): 78 µM
- Kd (TTD (UHRF1_121–286) [1]; residue Y239, read-out: KD estimate from Y239 amide peak movement): 76 µM
- solubility (solubility (statement)): highly soluble
- competition for the TTD groove (TTD (UHRF1_121–286) [2]): compete directly for the TTD groove
- ΔTm (thermal shift) (TTD (UHRF1_121–286) [3]): 2.9 °C
SMILES: N=C(N)N1CCC(Cc2ccccc2)CC1 [BPC, 4-benzylpiperidine-1-carboximidamide]
